The text below walks through data of US10344060B2 (priority 2013, dated 2019).

The structures appear in SMILES notation. Like-named read-outs stand apart in the source and are kept apart here.

The test system of one series is male CD-1 mice. The settings on record: mouse, in vivo.
Series [1] deals with T1, hNav1.7 (Homo sapiens, UniProt Q15858). Nature of the series: cell-based. It is filed as cell-based. The settings on record: Table 15; read-out: PX hNav1.7 Tonic IC50.
For series [2], the target named is T2, hNav1.5 (Homo sapiens, UniProt Q14524). Put plainly: cell-based. Conditions: Table 12; ratio of PX tonic IC50 values.
The target of series [3] is T3, hNav1.4 (Homo sapiens, UniProt P35499). Put plainly: cell-based. It is filed as cell-based. The settings on record: Table 12; ratio of PX tonic IC50 values.
The target of a further series is hNav1.6 (Homo sapiens, UniProt Q9UQD0). Put plainly: cell-based. Conditions: for Nav1.6/Nav1.7 / IC50: Table 15; for Nav1.6/Nav1.7: ratio of PX tonic IC50 values; for IC50: read-out: PX hNav1.6 Tonic IC50. It is filed as cell-based.
In series [4] the target is T1, hNav1.7. Nature of the series: cell-based. It counts as cell-based.
Series [5] has as its target hNav1.8 (Homo sapiens, UniProt Q9Y5Y9). Put plainly: cell-based. It is filed as cell-based.
Series [6] deals with hNav1.8. Nature of the series: cell-based. It counts as cell-based, human. The settings on record: partially inactivated, hNav1.8 / hNav1.7.
Series [7] addresses T2, hNav1.5. Nature of the series: cell-based. It is filed as cell-based.
The target in series [8] is T3, hNav1.4. Put plainly: cell-based. It counts as cell-based.
The target in another series is hNav1.3 (Homo sapiens, UniProt Q9NY46). Put plainly: cell-based. It is filed as cell-based.
Chain of hNav1.3 (Q9NY46 whole entry): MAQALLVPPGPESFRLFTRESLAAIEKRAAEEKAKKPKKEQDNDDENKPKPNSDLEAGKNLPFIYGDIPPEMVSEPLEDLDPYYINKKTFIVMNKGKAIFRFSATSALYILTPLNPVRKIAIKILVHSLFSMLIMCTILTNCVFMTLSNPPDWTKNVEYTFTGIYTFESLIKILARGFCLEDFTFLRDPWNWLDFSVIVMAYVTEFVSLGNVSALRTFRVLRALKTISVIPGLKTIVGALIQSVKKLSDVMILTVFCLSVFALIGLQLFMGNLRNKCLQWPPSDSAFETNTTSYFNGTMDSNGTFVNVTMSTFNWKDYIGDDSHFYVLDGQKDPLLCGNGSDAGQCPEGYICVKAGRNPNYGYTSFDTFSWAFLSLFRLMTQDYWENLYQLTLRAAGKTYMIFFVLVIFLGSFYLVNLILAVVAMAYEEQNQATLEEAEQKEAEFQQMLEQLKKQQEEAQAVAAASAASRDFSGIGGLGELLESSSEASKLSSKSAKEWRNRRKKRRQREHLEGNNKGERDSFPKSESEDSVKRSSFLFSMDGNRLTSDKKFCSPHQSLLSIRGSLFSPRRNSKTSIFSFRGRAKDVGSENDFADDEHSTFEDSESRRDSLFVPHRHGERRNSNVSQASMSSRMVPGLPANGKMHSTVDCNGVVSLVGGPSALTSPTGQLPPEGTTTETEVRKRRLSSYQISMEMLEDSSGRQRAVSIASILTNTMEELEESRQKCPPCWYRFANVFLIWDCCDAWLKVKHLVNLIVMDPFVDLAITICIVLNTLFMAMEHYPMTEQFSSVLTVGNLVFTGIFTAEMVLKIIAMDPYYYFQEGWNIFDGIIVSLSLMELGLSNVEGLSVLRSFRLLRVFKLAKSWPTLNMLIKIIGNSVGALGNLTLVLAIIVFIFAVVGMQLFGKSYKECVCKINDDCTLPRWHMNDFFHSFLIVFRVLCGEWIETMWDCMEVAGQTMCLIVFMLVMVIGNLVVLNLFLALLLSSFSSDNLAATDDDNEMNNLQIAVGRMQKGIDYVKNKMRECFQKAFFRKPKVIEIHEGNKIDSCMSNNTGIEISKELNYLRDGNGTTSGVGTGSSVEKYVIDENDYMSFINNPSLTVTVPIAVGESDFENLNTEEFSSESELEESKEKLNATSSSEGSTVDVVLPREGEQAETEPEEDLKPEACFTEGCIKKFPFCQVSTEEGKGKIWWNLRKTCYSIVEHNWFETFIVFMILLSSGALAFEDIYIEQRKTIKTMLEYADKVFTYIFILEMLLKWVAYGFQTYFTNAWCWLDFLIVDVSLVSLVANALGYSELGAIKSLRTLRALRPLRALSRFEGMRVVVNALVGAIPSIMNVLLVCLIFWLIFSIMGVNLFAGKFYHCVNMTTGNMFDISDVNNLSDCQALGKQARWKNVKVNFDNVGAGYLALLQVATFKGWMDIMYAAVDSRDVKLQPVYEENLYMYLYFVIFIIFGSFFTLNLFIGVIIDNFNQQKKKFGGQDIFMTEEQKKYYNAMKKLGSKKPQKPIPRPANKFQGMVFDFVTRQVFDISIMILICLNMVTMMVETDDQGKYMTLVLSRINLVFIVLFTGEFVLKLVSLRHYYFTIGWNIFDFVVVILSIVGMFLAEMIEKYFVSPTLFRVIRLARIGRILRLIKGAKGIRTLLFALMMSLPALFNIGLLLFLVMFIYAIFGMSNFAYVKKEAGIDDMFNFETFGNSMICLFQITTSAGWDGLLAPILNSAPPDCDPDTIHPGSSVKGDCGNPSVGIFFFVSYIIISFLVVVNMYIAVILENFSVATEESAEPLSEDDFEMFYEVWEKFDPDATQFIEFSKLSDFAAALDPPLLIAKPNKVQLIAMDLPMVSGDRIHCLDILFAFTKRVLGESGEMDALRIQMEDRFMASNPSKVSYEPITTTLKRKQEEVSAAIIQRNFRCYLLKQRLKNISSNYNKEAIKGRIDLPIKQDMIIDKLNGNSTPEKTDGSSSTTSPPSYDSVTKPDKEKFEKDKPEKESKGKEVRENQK
The target of a further series is human Nav1.1 (Homo sapiens, UniProt P35498). Nature of the series: cell-based. It counts as cell-based.
Another series deals with human Nav1.2 (Homo sapiens, UniProt Q99250). Put plainly: cell-based. It is filed as cell-based.
In another series the target is human Nav1.6 (Homo sapiens, UniProt Q9UQD0). Put plainly: cell-based. It is filed as cell-based.
Series [9] concerns TTX-sensitive Nav channels in mouse DRG neuron.
The test system of series [10] is TTX-sensitive Nav channels in Sprague Dawley rat DRG neuron.
The nature of series [11]: in vivo. Conditions: male, CD-1, mouse, sc.
The conditions of series [12]: for mean Cmax over the rat DRG Nav1.7: Sprague-Dawley rats.
Series [13] is described as follows: in vivo. Conditions: female, Sprague-Dawley, rat, sc.

T1 sequence (Q15858 whole entry): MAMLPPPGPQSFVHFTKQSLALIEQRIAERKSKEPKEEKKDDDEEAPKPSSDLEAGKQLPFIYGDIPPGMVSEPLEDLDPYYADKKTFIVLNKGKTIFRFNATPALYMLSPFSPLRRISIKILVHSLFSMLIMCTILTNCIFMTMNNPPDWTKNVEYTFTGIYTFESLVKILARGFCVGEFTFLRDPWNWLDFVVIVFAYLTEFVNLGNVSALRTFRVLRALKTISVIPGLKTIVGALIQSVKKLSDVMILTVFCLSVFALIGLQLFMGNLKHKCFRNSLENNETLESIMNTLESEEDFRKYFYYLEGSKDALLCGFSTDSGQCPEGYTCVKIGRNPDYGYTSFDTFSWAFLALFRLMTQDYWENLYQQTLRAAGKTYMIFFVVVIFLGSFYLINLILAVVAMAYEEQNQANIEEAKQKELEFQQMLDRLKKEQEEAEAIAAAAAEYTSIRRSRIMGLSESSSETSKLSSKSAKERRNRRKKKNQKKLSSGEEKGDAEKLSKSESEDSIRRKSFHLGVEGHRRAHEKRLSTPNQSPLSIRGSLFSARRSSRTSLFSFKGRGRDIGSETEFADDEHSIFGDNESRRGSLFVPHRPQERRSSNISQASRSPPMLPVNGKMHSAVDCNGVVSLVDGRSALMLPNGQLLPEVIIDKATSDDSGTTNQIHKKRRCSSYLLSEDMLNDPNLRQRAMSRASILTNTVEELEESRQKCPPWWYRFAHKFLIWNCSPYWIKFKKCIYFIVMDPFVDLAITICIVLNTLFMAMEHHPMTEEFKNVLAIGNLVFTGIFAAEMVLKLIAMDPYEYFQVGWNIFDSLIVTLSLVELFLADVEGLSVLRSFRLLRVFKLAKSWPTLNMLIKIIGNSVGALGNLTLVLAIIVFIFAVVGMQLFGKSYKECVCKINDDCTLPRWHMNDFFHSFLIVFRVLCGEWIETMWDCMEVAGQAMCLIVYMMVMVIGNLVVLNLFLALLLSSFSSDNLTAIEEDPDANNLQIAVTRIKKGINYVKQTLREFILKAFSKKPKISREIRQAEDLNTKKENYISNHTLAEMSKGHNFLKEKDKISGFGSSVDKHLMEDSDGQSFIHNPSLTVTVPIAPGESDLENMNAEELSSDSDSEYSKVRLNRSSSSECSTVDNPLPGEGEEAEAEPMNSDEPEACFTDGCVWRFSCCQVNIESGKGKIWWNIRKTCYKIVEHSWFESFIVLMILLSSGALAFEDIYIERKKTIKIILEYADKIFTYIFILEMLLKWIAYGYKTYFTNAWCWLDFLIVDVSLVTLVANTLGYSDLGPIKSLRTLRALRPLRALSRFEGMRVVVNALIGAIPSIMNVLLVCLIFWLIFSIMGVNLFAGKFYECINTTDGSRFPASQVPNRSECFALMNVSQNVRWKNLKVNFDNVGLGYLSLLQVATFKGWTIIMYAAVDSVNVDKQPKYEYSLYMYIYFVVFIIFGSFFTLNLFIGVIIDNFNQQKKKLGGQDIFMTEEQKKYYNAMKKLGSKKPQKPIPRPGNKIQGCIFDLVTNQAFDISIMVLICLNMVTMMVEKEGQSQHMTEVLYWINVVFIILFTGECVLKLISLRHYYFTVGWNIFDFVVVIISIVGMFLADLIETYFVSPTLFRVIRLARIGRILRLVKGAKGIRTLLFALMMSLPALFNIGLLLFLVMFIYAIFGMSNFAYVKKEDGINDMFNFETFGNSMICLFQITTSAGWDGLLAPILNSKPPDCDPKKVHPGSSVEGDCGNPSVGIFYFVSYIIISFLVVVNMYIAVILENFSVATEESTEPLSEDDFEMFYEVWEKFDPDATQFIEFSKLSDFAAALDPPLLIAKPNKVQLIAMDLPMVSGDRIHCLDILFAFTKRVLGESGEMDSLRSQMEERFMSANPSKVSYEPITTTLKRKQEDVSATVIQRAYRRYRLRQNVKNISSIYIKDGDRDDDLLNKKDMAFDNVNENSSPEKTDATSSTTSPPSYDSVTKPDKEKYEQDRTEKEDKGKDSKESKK

For the molecule `Cc1cccc(C)c1OCC(C)N` (stereo not drawn) [mexilitine, reference compound], in the series on male CD-1 mice, the “reversal of thermal hyperalgesia, positive control” value was “sufficient to significantly reverse thermal hyperalgesia”.
Consider `C#CC[C@H](N)C(=O)N[C@@H](Cc1ccc(O)cc1)C(=O)N[C@H]1CSSC[C@@H]2NC(=O)[C@@H]3CSSC[C@@H](C(=O)N[C@@H](CCCNC(=N)N)C(=O)N[C@@H](CCCCN)C(=O)N[C@@H](CCC(=O)O)C(=O)N[C@H](C(N)=O)[C@@H](C)CC)NC(=O)[C@H](Cc4c[nH]c5ccccc45)NC(=O)[C@H](CC(C)C)NC(=O)[C@H](CCCCN)NC(=O)[C@H](CSSC[C@H](NC(=O)[C@H]([C@@H](C)O)NC(=O)[C@H](Cc4c[nH]c5ccccc45)NC(=O)[C@H](CCCC)NC(=O)[C@H](Cc4c[nH]c5ccccc45)NC(=O)[C@H](CCCCN)NC(=O)[C@H](CCC(N)=O)NC1=O)C(=O)N[C@@H](CC(=O)O)C(=O)N[C@@H](CO)C(=O)N[C@@H](CCCCN)C(=O)N[C@@H](CCCNC(=N)N)C(=O)N[C@@H](C)C(=O)N3)NC(=O)[C@H](CCCNC(=N)N)NC(=O)[C@H](CC(C)C)NC(=O)CNC(=O)[C@H](CCC(=O)O)NC2=O` [compound 328], for which the IC50 – broadly, the concentration that inhibits the measured activity by half – on hNav1.7 [1] was 0.548 nM; on hNav1.6, 183 nM; on hNav1.7 [4] (read-out: IC50 of hNav1.7 inhibition), 0.62 nM; at hNav1.8 [5], > 1000 nM; at hNav1.8 [5] (WCPC, partially inactivated, hNav1.8, n=2, read-out: Mean IC50), > 1000 nM; on hNav1.5 [7] (WCPC, partially inactivated, hNav1.5, n=2, read-out: Mean IC50) it was > 1000 nM. Also, the IC50 was > 1000 nM at hNav1.5 [7] (manual WCPC, ~20% inactivation, read-out: IC50 of hNav1.5 inhibition); 74.6 nM at hNav1.4 [8] (manual WCPC, partially inactivated state, read-out: IC50 of hNav1.4 inhibition); 52.5 nM on hNav1.3 (manual WCPC, ~20% inactivation, read-out: IC50 of hNav1.3 inhibition); 27.2 nM at human Nav1.1 (manual patch clamp, ~20% inactivation, read-out: IC50 hNav1.1); 44.4 nM on human Nav1.2 (manual patch clamp, ~20% inactivation, read-out: IC50 hNav1.2); 19.4 nM on human Nav1.6 (manual patch clamp, ~20% inactivation, read-out: IC50 hNav1.6). Also, the IC50 in series [9] was found to be 11.2 nM; in series [10], 30.7 nM. For the same molecule, the Nav1.5/Nav1.7 at hNav1.5 [2] stood at 5854. The Nav1.4/Nav1.7 on hNav1.4 [3] is recorded as 253. At hNav1.6 (PatchXpress), the “selectivity for Nav1.7 over Nav1.6” value is reported as 334 fold. Besides, the Nav1.6/Nav1.7 at hNav1.6 is given as 334. Besides, on hNav1.7 [4] (100 nM), the “block of hNav1.7 current” value was “approximately 95%”. The “potency against hNav1.7, in words” value on hNav1.7 [4] (manual WCPC) is “sub-nanomolar potency”. Besides, on hNav1.7 [4] (manual WCPC, hNav1.1-hNav1.8), the “selectivity for hNav1.7 against other human VGSCs” value is recorded as > 30 fold. Moreover, the “block of TTX-resistant hNav1.8 current” value on hNav1.8 [5] (1000 nM) is listed as “approximately 30%”. The 1.x/1.7 in the series on hNav1.8 [6] is on record as >1613; at hNav1.5 [7] (partially inactivated, hNav1.5 / hNav1.7), >1613; on hNav1.4 [8] (partially inactivated, hNav1.4 / hNav1.7) it was 120; at hNav1.3 (partially inactivated, hNav1.3 / hNav1.7), 85; on human Nav1.1 (partially inactivated, hNav1.1 / hNav1.7) it was 44; at human Nav1.2 (partially inactivated, hNav1.2 / hNav1.7), 72. In addition, the 1.x/1.7 at human Nav1.6 (partially inactivated, hNav1.6 / hNav1.7) was determined as 31; in series [9] (partially inactivated, mTTX-S / hNav1.7), 18; in series [10] (partially inactivated, rTTX-S / hNav1.7), 50. In addition, on hNav1.5 [7] (1000 nM, held at −77 mV), the “block of hNav1.5 current” value is reported as “less than 10%”. The “block of hNav1.4 current” value on hNav1.4 [8] (1000 nM, held at −78 mV) is “approximately 90%”. The “block of hNav1.3 current” value at hNav1.3 (1000 nM, held at −68 mV) is “approximately 90%”. Moreover, the “block of hNav1.1 current” value at human Nav1.1 (1000 nM, held at −70 mV) is “approximately 95%”. Moreover, the “block of hNav1.2 current, in words” value on human Nav1.2 (1000 nM, held at −65 mV) is on record as “blocks the majority of Nav current”. In addition, the “block of hNav1.6 current, in words” value at human Nav1.6 (1000 nM, held at −67 mV) is reported as “blocks the majority of Nav current”. Also, the “block of TTX-sensitive Nav current” value was “approximately 90%” in series [9] (300 nM, C57 Black 6 mouse DRG neuron) and “approximately 85%” in [10] (300 nM, Sprague Dawley rat DRG neuron held at −78 mV). For the setting “male CD-1 mice, 5 mg/kg s.c.”, the “mean Cmax over the mouse DRG Nav1.7 IC50” value is 196 fold. The peak level in “in vivo [11]” (5 mg/kg) (Cmax) was 2200 nM. Further, the half-life – broadly, the time in which the quantity being followed falls by half – in the series “in vivo [11]” (5 mg/kg) was ~270 min.
Turning to `C#CC[C@@H]1NC(=O)[C@@H]2CSSC[C@H](NC(=O)[C@H](Cc3ccc(O)cc3)NC(=O)[C@@H](N)CC#N)C(=O)N[C@@H](CCC(N)=O)C(=O)N[C@@H](CCCCN)C(=O)N[C@@H](Cc3c[nH]c4ccccc34)C(=O)N[C@@H](CCCC)C(=O)N[C@@H](Cc3c[nH]c4ccccc34)C(=O)N[C@@H]([C@@H](C)O)C(=O)N[C@H]3CSSC[C@H](NC(=O)[C@H](CCCNC(=N)N)NC(=O)[C@H](CC(C)C)NC(=O)CNC1=O)C(=O)N[C@@H](CCCCN)C(=O)N[C@@H](CC(C)C)C(=O)N[C@@H](Cc1c[nH]c4ccccc14)C(=O)N[C@H](C(=O)N[C@@H](CCCNC(=N)N)C(=O)N[C@@H](CCCCN)C(=O)N[C@@H](CCC(=O)O)C(=O)N[C@H](C(N)=O)[C@@H](C)CC)CSSC[C@H](NC(=O)[C@H](C)NC(=O)[C@H](CCCNC(=N)N)NC(=O)[C@H](CCCCN)NC(=O)[C@H](CO)NC(=O)[C@H](CC(=O)O)NC3=O)C(=O)N2` [compound 395], the IC50 at hNav1.7 [1] stood at 0.779 nM; at hNav1.6 it was 73.2 nM; in series [9] it was 15.9 nM; in [10] it was 9.25 nM. Moreover, the Nav1.5/Nav1.7 on hNav1.5 [2] came out at 256. For the same molecule, on hNav1.6, the Nav1.6/Nav1.7 was found to be 94. Moreover, in series [9] (TTX-sensitive current in mouse DRG neurons), the “potency relative to wild type peptide, in words” value was “equipotent”. Also, the “mean Cmax over the mouse DRG Nav1.7 IC50” value (CD-1 male mouse, 2 mg/kg s.c.) was 46 fold. Also, the “mean Cmax over the rat DRG Nav1.7” value in series [12] (1 mg/kg s.c.) turned out to be 56 fold; in [12] (3 mg/kg s.c.) it was 306 fold; in series [12] (10 mg/kg s.c.), 684 fold. Moreover, the tolerability result in [12] (Sprague-Dawley rats, 1, 3 or 10 mg/kg single s.c. administration) is “All the doses were tolerated”. Besides, the maximum concentration (Cmax) (commonly the maximum level reached in the sampled fluid or tissue) in the series “in vivo [11]” (2 mg/kg) worked out at 730 nM; in the series “in vivo [13]” (1 mg/kg), 79 nM; in the series “in vivo [13]” (3 mg/kg), 430 nM; in the series “in vivo [13]” (10 mg/kg) it was 970 nM. Moreover, in the series “in vivo [11]” (2 mg/kg), the half-life was ~138 min. Besides, the Tmax (in general, the time at which the peak concentration occurs) in the series “in vivo [13]” (1 mg/kg) turned out to be 1 h; in the series “in vivo [13]” (3 mg/kg), 3 h; in the series “in vivo [13]” (10 mg/kg), 3 h.
